Measured values published in patent US6428804B1, “Intra-articular preparation for the treatment of arthropathy” (SSP Co., Ltd., priority 1997, dated 2002).

What was measured:
[1] = Pharmacokinetic test of DFNa-containing microcapsules (Test 6); type: in vivo; details: rabbit knee joint, 1 mg in terms of DFNa, solution in physiological saline (FIG. 9)
Experimental: The DFNa-containing microcapsules (average particle size: 67.9 μm) obtained in Example 25 were suspended in the same injection-grade dispersion medium as that employed in Test 1. The resulting suspension was injected in a dose of 10 mg in terms of DFNa into a knee joint of a rabbit, and the amount of DF in the synovium and its peripheral tissue was measured periodically. As a control, a solution of DFNa in a physiological saline was injected in a dose of 1 mg in terms of DFNa, and measurements were conducted.

[2] = Pharmacokinetic test of MTX-containing microcapsules (Test 8); type: in vivo; details: rabbit knee joint, 1 mg in terms of MTX (FIG. 11)
Experimental: The MTX-containing microcapsules obtained in Example 26 were suspended in the same injection-grade dispersion medium as that employed in Test 1. The resulting suspension was injected in a dose of 1 mg in terms of MTX into a knee joint of a rabbit, and the amount of MTX in the synovium and its peripheral tissue was measured periodically. As a control, MTX was dissolved in a phosphate buffer of pH 7.5 and the resulting solution was injected in a dose of 1 mg in terms of MTX.

amount of DF in the synovium and its peripheral tissue [1]	amount of MTX in the synovium and its peripheral tissue [2]	Structure (SMILES)
no existence of DF was observed		O=C(O)Cc1ccccc1Nc1c(Cl)cccc1Cl [diclofenac sodium]
	no existence of MTX was observed	CN(Cc1cnc2nc(N)nc(N)c2n1)c1ccc(C(=O)N[C@@H](CCC(=O)O)C(=O)O)cc1 [solution of MTX in the phosphate buffer, Methotrexate]
